These compounds were tested on MCH receptors (assay: MCH receptor activity class (method not given)). Details: class by percent of control at 10^-7 M or IC50.

| Compound | class |
| --- | --- |
| CN(C)c1cc(N[C@H]2CC[C@@H](NC(=O)c3ccc([N+](=O)[O-])s3)CC2)nc2ccccc12 [compound 688, N-(cis-4-{[4-(dimethylamino)quinolin-2-yl]amino}cyclohexyl)-5-nitrothiophene-2-carboxamide] | 1 (Class 1: The value of percent of control at 10^−7 M was less than 40% or the value of IC50 was less than 50 nM.) |
| Cc1cc(C(=O)N[C@H]2CC[C@@H](Nc3cc(N(C)C)c4ccccc4n3)CC2)ccc1[N+](=O)[O-] [compound 689, N-(cis-4-{[4-(dimethylamino)quinolin-2-yl]amino}cyclohexyl)-3-methyl-4-nitrobenzamide] | 1 (Class 1: The value of percent of control at 10^−7 M was less than 40% or the value of IC50 was less than 50 nM.) |
| COc1cc(C(=O)N[C@H]2CC[C@@H](Nc3cc(N(C)C)c4ccccc4n3)CC2)ccc1[N+](=O)[O-] [compound 690, N-(cis-4-{[4-(dimethylamino)quinolin-2-yl]amino}cyclohexyl)-3-methoxy-4-nitrobenzamide] | 1 (Class 1: The value of percent of control at 10^−7 M was less than 40% or the value of IC50 was less than 50 nM.) |
| CN(C)c1cc(N[C@H]2CC[C@@H](NC(=O)c3cn(Cc4ccccc4)c4ccccc34)CC2)nc2ccccc12 [compound 691] | 3 (Class 3 The value of percent of control at 10^−7 M was more than 60% or the value of IC50 was more than 200 nM.) |
| CC(=O)c1cccc(C(=O)N[C@H]2CC[C@@H](Nc3cc(N(C)C)c4ccccc4n3)CC2)c1 [compound 692] | 3 (Class 3 The value of percent of control at 10^−7 M was more than 60% or the value of IC50 was more than 200 nM.) |
| CN(C)c1cc(N[C@H]2CC[C@@H](NC(=O)C3CCCC[C@H]3C(=O)c3ccccc3)CC2)nc2ccccc12 (some centres unmarked) [compound 693] | 3 (Class 3 The value of percent of control at 10^−7 M was more than 60% or the value of IC50 was more than 200 nM.) |
| CN(C)c1cc(N[C@H]2CC[C@@H](NC(=O)c3ccc(Br)o3)CC2)nc2ccccc12 [compound 694, 5-bromo-N-(cis-4-{[4-(dimethylamino)quinolin-2-yl]amino}cyclohexyl)-2-furamide] | 1 (Class 1: The value of percent of control at 10^−7 M was less than 40% or the value of IC50 was less than 50 nM.) |
| CN(C)c1cc(N[C@H]2CC[C@@H](NC(=O)CCC3CCCCC3)CC2)nc2ccccc12 [compound 695] | 3 (Class 3 The value of percent of control at 10^−7 M was more than 60% or the value of IC50 was more than 200 nM.) |
| Cc1ccnc(SCC(=O)N[C@H]2CC[C@@H](Nc3cc(N(C)C)c4ccccc4n3)CC2)n1 [compound 696] | 3 (Class 3 The value of percent of control at 10^−7 M was more than 60% or the value of IC50 was more than 200 nM.) |
| CN(C)c1cc(N[C@H]2CC[C@@H](NC(=O)c3ccc(-c4ccc(Cl)cc4)o3)CC2)nc2ccccc12 [compound 697] | 3 (Class 3 The value of percent of control at 10^−7 M was more than 60% or the value of IC50 was more than 200 nM.) |
| CN(C)c1cc(N[C@H]2CC[C@@H](NC(=O)CCc3ccc(Cl)c(Cl)c3)CC2)nc2ccccc12 [compound 698] | 3 (Class 3 The value of percent of control at 10^−7 M was more than 60% or the value of IC50 was more than 200 nM.) |
| CN(C)c1cc(N[C@H]2CC[C@@H](NC(=O)Cc3ccc(Cl)c(Cl)c3)CC2)nc2ccccc12 [compound 699] | 3 (Class 3 The value of percent of control at 10^−7 M was more than 60% or the value of IC50 was more than 200 nM.) |
| COc1cc(CC(=O)N[C@H]2CC[C@@H](Nc3cc(N(C)C)c4ccccc4n3)CC2)cc(OC)c1O [compound 700] | 3 (Class 3 The value of percent of control at 10^−7 M was more than 60% or the value of IC50 was more than 200 nM.) |
| CN(C)c1cc(N[C@H]2CC[C@@H](NC(=O)c3cc(Br)c(Br)s3)CC2)nc2ccccc12 [compound 701] | 2 (Class 2: The value of percent of control at 10^−7 M was from 40% to 60% or the value of IC′50 was from 50 nM to 200 nM.) |
| COc1cc(CC(=O)N[C@H]2CC[C@@H](Nc3cc(N(C)C)c4ccccc4n3)CC2)cc(OC)c1 [compound 702] | 3 (Class 3 The value of percent of control at 10^−7 M was more than 60% or the value of IC50 was more than 200 nM.) |
| CN(C)c1cc(N[C@H]2CC[C@@H](NC(=O)Cc3cc(C(C)(C)C)c(O)c(C(C)(C)C)c3)CC2)nc2ccccc12 [compound 703] | 3 (Class 3 The value of percent of control at 10^−7 M was more than 60% or the value of IC50 was more than 200 nM.) |
| CN(C)c1cccc(C(=O)N[C@H]2CC[C@@H](Nc3cc(N(C)C)c4ccccc4n3)CC2)c1 [compound 705] | 3 (Class 3 The value of percent of control at 10^−7 M was more than 60% or the value of IC50 was more than 200 nM.) |
| CN(C)c1cc(N[C@H]2CC[C@@H](NC(=O)c3cc(Br)c(Br)o3)CC2)nc2ccccc12 [compound 706] | 1 (Class 1: The value of percent of control at 10^−7 M was less than 40% or the value of IC50 was less than 50 nM.) |
| CN(C)c1cc(N[C@H]2CC[C@@H](NC(=O)CCC(=O)c3ccc(F)cc3)CC2)nc2ccccc12 [compound 707] | 3 (Class 3 The value of percent of control at 10^−7 M was more than 60% or the value of IC50 was more than 200 nM.) |

| Compound | class |
| --- | --- |
| CN(C)c1cc(N[C@H]2CC[C@@H](NC(=O)[C@H](Cc3cn(Cc4ccccc4)cn3)NC(=O)OC(C)(C)C)CC2)nc2ccccc12 [compound 709] | 3 (Class 3 The value of percent of control at 10^−7 M was more than 60% or the value of IC50 was more than 200 nM.) |
| CN(C)c1cc(N[C@H]2CC[C@@H](NC(=O)Cc3c[nH]c4ccccc34)CC2)nc2ccccc12 [compound 711, N-(cis-4-{[4-(dimethylamino)quinolin-2-yl]amino}cyclohexyl)-2-(1H-indol-3-yl)acetamide] | 1 (Class 1: The value of percent of control at 10^−7 M was less than 40% or the value of IC50 was less than 50 nM.) |
| Cc1sc(-c2ccccc2)nc1CC(=O)N[C@H]1CC[C@@H](Nc2cc(N(C)C)c3ccccc3n2)CC1 [compound 712] | 3 (Class 3 The value of percent of control at 10^−7 M was more than 60% or the value of IC50 was more than 200 nM.) |
| COc1ccc(CSC2(CC(=O)N[C@H]3CC[C@@H](Nc4cc(N(C)C)c5ccccc5n4)CC3)CCCCC2)cc1 [compound 714] | 3 (Class 3 The value of percent of control at 10^−7 M was more than 60% or the value of IC50 was more than 200 nM.) |
| COc1ccc2c(CC(=O)N[C@H]3CC[C@@H](Nc4cc(N(C)C)c5ccccc5n4)CC3)cc(=O)oc2c1 [compound 715] | 3 (Class 3 The value of percent of control at 10^−7 M was more than 60% or the value of IC50 was more than 200 nM.) |
| Cc1cc(C)c(NC(=O)Nc2ccc(OC(F)(F)F)cc2)c(C(=O)N[C@H]2CC[C@@H](Nc3cc(N(C)C)c4ccccc4n3)CC2)c1 [compound 718] | 3 (Class 3 The value of percent of control at 10^−7 M was more than 60% or the value of IC50 was more than 200 nM.) |
| CN(C)c1cc(N[C@H]2CC[C@@H](NC(=O)c3cc(Cl)cc(Cl)c3NC(=O)C#Cc3ccccc3)CC2)nc2ccccc12 [compound 719] | 3 (Class 3 The value of percent of control at 10^−7 M was more than 60% or the value of IC50 was more than 200 nM.) |
| CN(C)c1cc(N[C@H]2CC[C@@H](NC(=O)Cc3ccccc3C(=O)Nc3ccc(Cl)cc3Cl)CC2)nc2ccccc12 [compound 723] | 3 (Class 3 The value of percent of control at 10^−7 M was more than 60% or the value of IC50 was more than 200 nM.) |
| Cc1c(C(=O)N[C@H]2CC[C@@H](Nc3cc(N(C)C)c4ccccc4n3)CC2)cc(-c2ccccc2)n1CCCN1CCOCC1 [compound 724] | 3 (Class 3 The value of percent of control at 10^−7 M was more than 60% or the value of IC50 was more than 200 nM.) |
| CN(C)c1cc(N[C@H]2CC[C@@H](NC(=O)CCCc3ccc([N+](=O)[O-])cc3)CC2)nc2ccccc12 [compound 725] | 3 (Class 3 The value of percent of control at 10^−7 M was more than 60% or the value of IC50 was more than 200 nM.) |
| CN(C)c1cc(N[C@H]2CC[C@@H](NC(=O)/C=C/c3ccccc3[N+](=O)[O-])CC2)nc2ccccc12 [compound 726] | 3 (Class 3 The value of percent of control at 10^−7 M was more than 60% or the value of IC50 was more than 200 nM.) |
| CN(C)c1cc(N[C@H]2CC[C@@H](NC(=O)Cc3cccc(Oc4ccccc4)c3)CC2)nc2ccccc12 [compound 727] | 3 (Class 3 The value of percent of control at 10^−7 M was more than 60% or the value of IC50 was more than 200 nM.) |
| CN(C)c1cc(N[C@H]2CC[C@@H](NC(=O)Cc3ccc(Oc4ccccc4)cc3)CC2)nc2ccccc12 [compound 728] | 3 (Class 3 The value of percent of control at 10^−7 M was more than 60% or the value of IC50 was more than 200 nM.) |
| CN(C)c1cc(N[C@H]2CC[C@@H](NC(=O)Cc3c(-c4ccccc4)[nH]c4ccccc34)CC2)nc2ccccc12 [compound 729, N-(cis-4-{[4-(dimethylamino)quinolin-2-yl]amino}cyclohexyl)-2-(2-phenyl-1H-indol-3-yl)acetamide] | 2 (Class 2: The value of percent of control at 10^−7 M was from 40% to 60% or the value of IC′50 was from 50 nM to 200 nM.) |
| CN(C)c1cc(N[C@H]2CC[C@@H](NC(=O)c3cccc(Oc4ccccc4)c3)CC2)nc2ccccc12 [compound 731] | 3 (Class 3 The value of percent of control at 10^−7 M was more than 60% or the value of IC50 was more than 200 nM.) |
| CN(C)c1cc(N[C@H]2CC[C@@H](NC(=O)c3ccccc3CCc3ccccc3)CC2)nc2ccccc12 [compound 732] | 3 (Class 3 The value of percent of control at 10^−7 M was more than 60% or the value of IC50 was more than 200 nM.) |
| CN(C)c1cc(N[C@H]2CC[C@@H](NC(=O)c3cccc(C(=O)c4ccccc4)c3)CC2)nc2ccccc12 [compound 733] | 3 (Class 3 The value of percent of control at 10^−7 M was more than 60% or the value of IC50 was more than 200 nM.) |
| CCSC(C(=O)N[C@H]1CC[C@@H](Nc2cc(N(C)C)c3ccccc3n2)CC1)(c1ccccc1)c1ccccc1 [compound 734] | 3 (Class 3 The value of percent of control at 10^−7 M was more than 60% or the value of IC50 was more than 200 nM.) |
| CN(C)c1cc(N[C@H]2CC[C@@H](NC(=O)c3ccccc3Sc3ccccc3C#N)CC2)nc2ccccc12 [compound 735] | 3 (Class 3 The value of percent of control at 10^−7 M was more than 60% or the value of IC50 was more than 200 nM.) |

Reference: patent US20050197350A1, “Novel quinoline, tetrahydroquinazoline, and pyrimidine derivatives and methods of treatment related to the use thereof” (TAISHO PHARMACEUTICAL CO., LTD., priority 2003, published 2005)
